Test results as given in ChEMBL document CHEMBL4602690, “Pigments of the Moss Paraleucobryum longifolium: Isolation and Structure Elucidation of Prenyl-Substituted 8,8'-Linked 9,10-Phenanthrenequinone Dimers” (J Nat Prod, 2020).

Legend:
Type in all cases: functional, cell-based
MDA-MB-231 = test: Antiproliferative activity against human MDA-MB-231 cells by MTT assay
A2780 = test: Antiproliferative activity against human A2780 cells by MTT assay
HeLa = test: Antiproliferative activity against human HeLa cells by MTT assay
SiHa = test: Antiproliferative activity against human SiHa cells by MTT assay

| IC50 (MDA-MB-231) | IC50 (A2780) | IC50 (HeLa) | Compound | IC50 (SiHa) |
| --- | --- | --- | --- | --- |
| < 10 µM | < 10 µM | < 10 µM | COc1cc(O)c2c(c1-c1c(OC)cc(O)c3c1C(=O)C(=O)c1c-3ccc(O)c1CCC(C)(C)O)C(=O)C(=O)c1c-2ccc(O)c1CCC(C)(C)O | < 10 µM |
| < 10 µM | < 10 µM | < 10 µM | C=C(C)[C@H](CCC(C)(C)O)Cc1c(O)ccc2c1C(=O)C(=O)c1c-2c(O)cc(OC)c1-c1c(OC)cc(O)c2c1C(=O)C(=O)c1c-2ccc(O)c1C[C@@H](CCC(C)(C)O)C(=C)C | < 10 µM |
